Data reported in ChEMBL document CHEMBL1201862, “PubChem BioAssay data set” (2004).
The source made the active and inactive calls.

Tests used:
[1] = blockade of melanocortin 4 receptor signaling – cell-based, plate reader, cherry pick, counter-screen for LGR2 antagonist project, dose response (AID 743444); assay type: functional;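 note: transfected HEK 293 cells stimulated with alpha-MSH peptide; potency of inhibitors of the alpha-MSH evoked signal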
[2] = inhibition of bursicon-driven LGR2 cAMP signaling – cell-based, HEK293, CRE-luciferase reporter, cherry pick, dose response (AID 743342); assay type: functional
[3] = A549 cell cytotoxicity, dose response, cytotoxicity control, plate reader, cherry-pick, antagonist series (AID 743412); assay type: functional, cell-based
[4] = toxicity toward HepG2 liver cells – cell-based, plate reader, cherry-pick, antagonist series, cytotoxicity control, dose response (AID 743416); assay type: functional
[5] = DRD fibroblast viability loss – cell-based, non-viral oncogenic, luminescence, dose response (AID 1934); assay type: functional; details: Homo sapiens
BJ [6] = assay: BJ-TERT fibroblast viability loss – cell-based, RAS-independent, luminescence, dose response (AID 1933); assay type: functional; details: Homo sapiens
[7] = target: T1, Zinc finger protein mex-5 (Caenorhabditis elegans, UniProt Q9XUB2); assay: potency of MEX-5 RNA-binding blockers – biochemical, C. elegans, fluorescence polarization, dose response (AID 1960)
T1 sequence (Q9XUB2 whole entry): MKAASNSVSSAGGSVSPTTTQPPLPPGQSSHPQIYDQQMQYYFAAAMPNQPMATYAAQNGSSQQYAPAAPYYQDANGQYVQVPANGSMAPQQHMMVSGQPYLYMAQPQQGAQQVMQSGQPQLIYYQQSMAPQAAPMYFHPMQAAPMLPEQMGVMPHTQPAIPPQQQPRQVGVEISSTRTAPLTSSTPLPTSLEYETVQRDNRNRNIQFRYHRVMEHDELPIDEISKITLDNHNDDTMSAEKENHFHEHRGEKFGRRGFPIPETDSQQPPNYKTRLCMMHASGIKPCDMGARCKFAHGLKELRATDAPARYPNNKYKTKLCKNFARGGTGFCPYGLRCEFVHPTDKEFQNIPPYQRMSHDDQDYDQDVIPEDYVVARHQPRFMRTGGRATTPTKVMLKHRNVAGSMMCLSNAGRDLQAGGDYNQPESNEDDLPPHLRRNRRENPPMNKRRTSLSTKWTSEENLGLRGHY

[8] = target: ADP-ribosylation factor GTPase-activating protein 1 (Rattus norvegicus, UniProt Q62848); assay: Fluorescence polarization-based biochemical high throughput dose response screening assay to identify inhibitors of ADP-ribosylation factor GTPase activating protein 1 (ARFGAP1).; assay type: functional
ADP-ribosylation factor GTPase-activating protein 1, sequence (Q62848 whole entry, the tested form may be a part): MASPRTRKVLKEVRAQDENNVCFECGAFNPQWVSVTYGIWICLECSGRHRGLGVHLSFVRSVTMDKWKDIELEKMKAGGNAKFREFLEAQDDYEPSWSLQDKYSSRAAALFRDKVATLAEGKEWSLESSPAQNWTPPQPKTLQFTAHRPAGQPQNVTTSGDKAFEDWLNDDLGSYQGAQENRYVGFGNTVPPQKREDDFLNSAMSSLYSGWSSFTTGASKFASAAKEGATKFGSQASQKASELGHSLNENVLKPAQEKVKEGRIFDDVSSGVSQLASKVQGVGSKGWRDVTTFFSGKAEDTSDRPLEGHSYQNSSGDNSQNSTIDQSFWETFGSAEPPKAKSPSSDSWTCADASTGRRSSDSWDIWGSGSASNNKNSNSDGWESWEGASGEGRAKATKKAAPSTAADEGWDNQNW

[9] = target: T2, RNA-binding protein pos-1 (Caenorhabditis elegans, UniProt G5EF15); assay: disruptors of C. elegans POS-1 RNA interaction – biochemical, fluorescence polarization, dose response (AID 1964);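 note: purified POS-1 fused to maltose binding protein made in E. coli; potency of compounds blocking POS-1 binding to fluorescent RNA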
T2 sequence (G5EF15 whole entry): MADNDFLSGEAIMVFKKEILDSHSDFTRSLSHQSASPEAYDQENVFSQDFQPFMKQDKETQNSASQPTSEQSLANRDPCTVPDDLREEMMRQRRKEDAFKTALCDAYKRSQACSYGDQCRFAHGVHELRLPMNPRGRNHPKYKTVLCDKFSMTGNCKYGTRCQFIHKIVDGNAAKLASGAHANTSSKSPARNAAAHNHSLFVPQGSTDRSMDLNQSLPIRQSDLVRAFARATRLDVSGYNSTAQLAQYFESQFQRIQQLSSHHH

[10] = target: Neurotensin receptor type 1 (Homo sapiens, UniProt P30989); assay type: functional;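 note: Image-based confirmatory dose-response assay measuring agonist activity at NTR1; NTR1-expressing U2OS osteosarcoma cells imaged for beta-arrestin GFP spot formation; agonist potency where compounds increase beta-arrestin recruitment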
Neurotensin receptor type 1, sequence (P30989 whole entry): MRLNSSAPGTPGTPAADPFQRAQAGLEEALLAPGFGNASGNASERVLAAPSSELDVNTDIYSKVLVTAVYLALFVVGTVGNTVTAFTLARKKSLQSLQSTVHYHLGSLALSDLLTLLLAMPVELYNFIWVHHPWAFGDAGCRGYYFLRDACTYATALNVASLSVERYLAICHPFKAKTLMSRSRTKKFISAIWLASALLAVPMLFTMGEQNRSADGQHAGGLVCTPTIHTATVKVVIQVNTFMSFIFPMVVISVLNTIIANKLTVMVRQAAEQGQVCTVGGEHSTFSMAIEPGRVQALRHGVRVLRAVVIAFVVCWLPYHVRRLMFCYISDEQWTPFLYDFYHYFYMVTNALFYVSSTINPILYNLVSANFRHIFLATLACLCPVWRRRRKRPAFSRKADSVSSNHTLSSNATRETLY

BJ [11] = assay: BJ-TERT-LT-ST fibroblast viability loss – cell-based, RAS-independent, luminescence, dose response (AID 1935); assay type: functional; details: Homo sapiens;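 note: BJ fibroblasts immortalized with TERT plus LT and ST oncogenes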
BJ [12] = assay: cells; assay type: functional, cell-based; details: Homo sapiens
[13] = target: T3, Sentrin-specific protease 1 (Homo sapiens, UniProt Q9P0U3); assay: Dose response confirmation of small molecule inhibitors of the catalytic domain of the SUMO protease, SENP1 in a FRET assay.; assay type: functional; details: read-out: IC50_Mean
T3 sequence (Q9P0U3 whole entry, the tested form may be a part): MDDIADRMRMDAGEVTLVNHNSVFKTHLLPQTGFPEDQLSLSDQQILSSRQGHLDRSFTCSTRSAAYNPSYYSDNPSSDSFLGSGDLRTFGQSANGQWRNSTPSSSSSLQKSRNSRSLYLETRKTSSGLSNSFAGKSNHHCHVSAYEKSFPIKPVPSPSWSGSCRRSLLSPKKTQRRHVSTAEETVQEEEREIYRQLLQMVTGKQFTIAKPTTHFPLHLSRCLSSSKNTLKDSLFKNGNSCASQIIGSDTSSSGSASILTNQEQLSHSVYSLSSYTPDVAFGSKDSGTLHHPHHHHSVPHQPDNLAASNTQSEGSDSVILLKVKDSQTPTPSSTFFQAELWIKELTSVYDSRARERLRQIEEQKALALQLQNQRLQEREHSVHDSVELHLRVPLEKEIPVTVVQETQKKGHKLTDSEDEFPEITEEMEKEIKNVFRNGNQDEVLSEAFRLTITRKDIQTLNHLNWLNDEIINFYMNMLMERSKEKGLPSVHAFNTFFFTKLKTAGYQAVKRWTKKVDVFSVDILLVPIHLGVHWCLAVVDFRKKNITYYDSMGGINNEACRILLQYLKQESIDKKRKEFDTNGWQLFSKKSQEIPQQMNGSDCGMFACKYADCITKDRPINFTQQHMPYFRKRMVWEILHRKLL

[14] = target: T3, Sentrin-specific protease 1; assay: SENP1 catalytic domain blockers, concentration series – biochemical, kinetic FRET, dose response (AID 651697); assay type: functional; details: read-out: IC50_Mean
NS3 = NS3 (Hepatitis C virus, UniProt A3EZJ3); assay: NS3h DNA-binding inhibition IC50 – biochemical, fluorescence polarization, ChemBridge library, dose response (AID 743264)
NS3, sequence (A3EZJ3 whole entry): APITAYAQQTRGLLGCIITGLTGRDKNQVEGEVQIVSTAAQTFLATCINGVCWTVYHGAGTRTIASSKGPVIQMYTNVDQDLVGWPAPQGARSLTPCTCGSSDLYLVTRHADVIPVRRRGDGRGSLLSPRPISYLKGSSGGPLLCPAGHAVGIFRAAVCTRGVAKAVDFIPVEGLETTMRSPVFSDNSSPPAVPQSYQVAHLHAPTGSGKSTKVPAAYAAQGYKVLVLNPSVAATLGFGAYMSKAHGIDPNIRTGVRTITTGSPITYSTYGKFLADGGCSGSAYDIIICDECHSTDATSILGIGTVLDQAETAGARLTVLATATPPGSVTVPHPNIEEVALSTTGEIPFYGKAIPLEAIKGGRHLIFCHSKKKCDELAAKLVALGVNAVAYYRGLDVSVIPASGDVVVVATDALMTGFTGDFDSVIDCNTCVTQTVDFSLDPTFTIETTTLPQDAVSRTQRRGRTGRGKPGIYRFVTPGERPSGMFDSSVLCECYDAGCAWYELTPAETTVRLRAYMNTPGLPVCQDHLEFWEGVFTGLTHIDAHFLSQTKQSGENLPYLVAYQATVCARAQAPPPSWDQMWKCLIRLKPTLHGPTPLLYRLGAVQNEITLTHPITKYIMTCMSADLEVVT

Fatty acid synthase = Fatty acid synthase (Homo sapiens, UniProt P49327); assay: inhibition of human FAS-TE enzyme activity – biochemical, endpoint fluorescence intensity, powder samples, SAR follow-up (AID 652164); assay type: functional
Fatty acid synthase, sequence (P49327 whole entry): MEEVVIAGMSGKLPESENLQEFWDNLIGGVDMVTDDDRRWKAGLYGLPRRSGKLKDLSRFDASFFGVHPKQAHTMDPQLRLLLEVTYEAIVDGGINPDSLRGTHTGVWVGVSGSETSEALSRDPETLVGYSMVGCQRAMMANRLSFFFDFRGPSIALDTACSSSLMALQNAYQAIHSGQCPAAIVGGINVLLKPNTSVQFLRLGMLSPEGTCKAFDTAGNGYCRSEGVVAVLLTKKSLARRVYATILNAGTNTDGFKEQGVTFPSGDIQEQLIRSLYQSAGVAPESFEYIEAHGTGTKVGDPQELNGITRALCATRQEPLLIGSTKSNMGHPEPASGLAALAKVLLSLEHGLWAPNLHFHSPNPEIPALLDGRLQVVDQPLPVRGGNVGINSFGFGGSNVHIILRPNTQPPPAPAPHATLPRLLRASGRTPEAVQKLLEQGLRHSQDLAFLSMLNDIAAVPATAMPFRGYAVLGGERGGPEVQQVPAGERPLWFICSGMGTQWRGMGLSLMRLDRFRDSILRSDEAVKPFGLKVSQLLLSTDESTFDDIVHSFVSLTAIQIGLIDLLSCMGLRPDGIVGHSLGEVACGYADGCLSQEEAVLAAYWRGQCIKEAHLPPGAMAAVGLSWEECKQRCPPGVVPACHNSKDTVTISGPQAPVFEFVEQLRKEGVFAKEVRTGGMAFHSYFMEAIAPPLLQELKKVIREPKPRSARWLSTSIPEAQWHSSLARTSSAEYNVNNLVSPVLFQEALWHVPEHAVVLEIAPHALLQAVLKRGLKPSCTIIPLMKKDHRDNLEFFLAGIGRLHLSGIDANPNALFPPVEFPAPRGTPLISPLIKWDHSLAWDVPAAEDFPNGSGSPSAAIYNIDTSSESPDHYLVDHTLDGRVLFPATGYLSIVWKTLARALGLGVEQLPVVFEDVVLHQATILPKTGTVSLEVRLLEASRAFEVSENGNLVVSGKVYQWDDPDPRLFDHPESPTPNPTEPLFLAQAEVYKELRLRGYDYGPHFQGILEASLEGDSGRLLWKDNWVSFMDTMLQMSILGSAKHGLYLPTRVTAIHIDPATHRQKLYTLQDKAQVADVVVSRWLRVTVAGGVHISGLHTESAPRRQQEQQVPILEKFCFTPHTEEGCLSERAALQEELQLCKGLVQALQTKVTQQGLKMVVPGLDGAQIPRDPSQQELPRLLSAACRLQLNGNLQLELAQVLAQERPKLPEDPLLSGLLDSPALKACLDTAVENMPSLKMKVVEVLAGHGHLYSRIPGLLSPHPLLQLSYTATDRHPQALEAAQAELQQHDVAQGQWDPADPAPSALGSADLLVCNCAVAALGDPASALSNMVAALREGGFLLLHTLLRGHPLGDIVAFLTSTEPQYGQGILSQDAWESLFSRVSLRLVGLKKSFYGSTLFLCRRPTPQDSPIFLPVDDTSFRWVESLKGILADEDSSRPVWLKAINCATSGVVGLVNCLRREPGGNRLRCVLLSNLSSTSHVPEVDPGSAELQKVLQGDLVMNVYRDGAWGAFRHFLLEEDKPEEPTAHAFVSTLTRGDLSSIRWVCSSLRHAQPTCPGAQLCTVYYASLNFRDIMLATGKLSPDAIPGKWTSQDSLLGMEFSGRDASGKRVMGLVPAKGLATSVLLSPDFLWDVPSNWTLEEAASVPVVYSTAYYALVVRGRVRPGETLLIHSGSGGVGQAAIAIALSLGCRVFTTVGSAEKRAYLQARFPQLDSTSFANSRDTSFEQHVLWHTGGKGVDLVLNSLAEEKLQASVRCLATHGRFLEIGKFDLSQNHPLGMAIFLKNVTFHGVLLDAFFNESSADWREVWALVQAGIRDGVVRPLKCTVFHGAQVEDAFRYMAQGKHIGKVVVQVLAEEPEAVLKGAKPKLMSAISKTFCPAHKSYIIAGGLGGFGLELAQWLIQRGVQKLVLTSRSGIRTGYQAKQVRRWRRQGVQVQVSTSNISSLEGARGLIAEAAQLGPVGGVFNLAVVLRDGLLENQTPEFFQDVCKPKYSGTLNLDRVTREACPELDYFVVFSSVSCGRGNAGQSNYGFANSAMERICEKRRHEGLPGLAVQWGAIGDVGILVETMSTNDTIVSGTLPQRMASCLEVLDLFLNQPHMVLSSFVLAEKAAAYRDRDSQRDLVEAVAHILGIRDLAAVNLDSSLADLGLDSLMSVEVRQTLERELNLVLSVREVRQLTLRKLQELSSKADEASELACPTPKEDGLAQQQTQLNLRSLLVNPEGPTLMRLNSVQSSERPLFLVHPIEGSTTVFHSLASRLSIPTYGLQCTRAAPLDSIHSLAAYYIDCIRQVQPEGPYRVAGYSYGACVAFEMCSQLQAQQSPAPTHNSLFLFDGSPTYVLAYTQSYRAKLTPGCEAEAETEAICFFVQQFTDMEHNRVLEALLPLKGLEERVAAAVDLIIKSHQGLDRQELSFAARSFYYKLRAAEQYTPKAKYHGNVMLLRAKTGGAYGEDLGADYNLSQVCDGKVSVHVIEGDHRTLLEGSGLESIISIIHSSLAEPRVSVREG

[15] = target: Matrix metalloproteinase-14 (Homo sapiens, UniProt P50281); assay: Dose Response confirmation of uHTS hits for a small molecule inhibitors of MT1-MMP activation in a fluorescence assay set 1.; assay type: functional
[16] = MITF Orthogonal Assay: SK-MEL-5 CTG Assay Measured in Cell-Based System Using Plate Reader - 2084-02_Inhibitor_Dose_DryPowder_Activity_Set7.; assay type: functional
[17] = inhibitors of TRPM1-promoter reporter in SK-MEL-5 – cell-based, luciferase, dry powder, set 8, MITF inhibitor project, dose response (AID 624430); assay type: functional
[18] = MITF: Counter assay: A375 proliferation Measured in Cell-Based System Using Plate Reader - 2084-03_Inhibitor_Dose_DryPowder_Activity_Set8.; assay type: functional; details: A-375
[19] = target: T4, Sentrin-specific protease 8 (Homo sapiens, UniProt Q96LD8); assay type: functional
T4 sequence (Q96LD8 whole entry): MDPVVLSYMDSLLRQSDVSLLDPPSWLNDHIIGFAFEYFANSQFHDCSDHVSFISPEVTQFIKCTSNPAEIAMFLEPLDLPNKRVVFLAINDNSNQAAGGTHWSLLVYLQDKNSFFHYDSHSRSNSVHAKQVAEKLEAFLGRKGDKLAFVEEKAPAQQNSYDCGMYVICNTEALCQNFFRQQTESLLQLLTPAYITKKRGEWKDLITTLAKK

[20] = target: T4, Sentrin-specific protease 8; assay type: functional; remark: listed apart in the source
Protein RecA = target: T5, Protein RecA (Mycobacterium tuberculosis, UniProt P9WHJ3); assay: Fluorescence Cell-Free Homogeneous Dose Retest to Identify Inhibitors of RecA-Intein Splicing Activity. [Related pubchem assays (depositor defined):AID2097, AID2223, AID489010, AID492950]; assay type: functional
T5 sequence (P9WHJ3 whole entry): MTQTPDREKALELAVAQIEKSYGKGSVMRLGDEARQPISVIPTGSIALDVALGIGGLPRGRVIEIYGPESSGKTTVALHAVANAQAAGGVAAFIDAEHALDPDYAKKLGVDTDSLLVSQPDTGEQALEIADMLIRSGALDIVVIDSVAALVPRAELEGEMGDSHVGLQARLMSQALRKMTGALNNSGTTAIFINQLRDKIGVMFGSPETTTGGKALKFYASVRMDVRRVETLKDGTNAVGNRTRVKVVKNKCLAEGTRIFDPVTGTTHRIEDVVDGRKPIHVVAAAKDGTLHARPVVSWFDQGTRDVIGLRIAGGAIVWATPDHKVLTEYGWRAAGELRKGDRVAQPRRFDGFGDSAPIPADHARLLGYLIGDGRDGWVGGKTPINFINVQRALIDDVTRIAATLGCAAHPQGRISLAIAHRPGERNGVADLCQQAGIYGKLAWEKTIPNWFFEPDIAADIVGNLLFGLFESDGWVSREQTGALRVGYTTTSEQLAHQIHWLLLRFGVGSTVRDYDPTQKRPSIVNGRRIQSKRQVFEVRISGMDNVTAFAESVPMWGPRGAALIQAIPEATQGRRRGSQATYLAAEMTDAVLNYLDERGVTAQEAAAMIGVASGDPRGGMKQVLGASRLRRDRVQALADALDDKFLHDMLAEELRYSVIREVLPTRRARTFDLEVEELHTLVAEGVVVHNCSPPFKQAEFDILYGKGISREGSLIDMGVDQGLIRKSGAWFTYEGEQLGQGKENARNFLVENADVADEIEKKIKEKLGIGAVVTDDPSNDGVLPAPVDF

[21] = target: T6, Replicative DNA helicase DnaB (Mycobacterium tuberculosis, UniProt P9WMR3); assay: DnaB intein splicing inhibitors, dose response, biochemical, cell-free fluorescence (AID 449749); assay type: functional
T6 sequence (P9WMR3 whole entry): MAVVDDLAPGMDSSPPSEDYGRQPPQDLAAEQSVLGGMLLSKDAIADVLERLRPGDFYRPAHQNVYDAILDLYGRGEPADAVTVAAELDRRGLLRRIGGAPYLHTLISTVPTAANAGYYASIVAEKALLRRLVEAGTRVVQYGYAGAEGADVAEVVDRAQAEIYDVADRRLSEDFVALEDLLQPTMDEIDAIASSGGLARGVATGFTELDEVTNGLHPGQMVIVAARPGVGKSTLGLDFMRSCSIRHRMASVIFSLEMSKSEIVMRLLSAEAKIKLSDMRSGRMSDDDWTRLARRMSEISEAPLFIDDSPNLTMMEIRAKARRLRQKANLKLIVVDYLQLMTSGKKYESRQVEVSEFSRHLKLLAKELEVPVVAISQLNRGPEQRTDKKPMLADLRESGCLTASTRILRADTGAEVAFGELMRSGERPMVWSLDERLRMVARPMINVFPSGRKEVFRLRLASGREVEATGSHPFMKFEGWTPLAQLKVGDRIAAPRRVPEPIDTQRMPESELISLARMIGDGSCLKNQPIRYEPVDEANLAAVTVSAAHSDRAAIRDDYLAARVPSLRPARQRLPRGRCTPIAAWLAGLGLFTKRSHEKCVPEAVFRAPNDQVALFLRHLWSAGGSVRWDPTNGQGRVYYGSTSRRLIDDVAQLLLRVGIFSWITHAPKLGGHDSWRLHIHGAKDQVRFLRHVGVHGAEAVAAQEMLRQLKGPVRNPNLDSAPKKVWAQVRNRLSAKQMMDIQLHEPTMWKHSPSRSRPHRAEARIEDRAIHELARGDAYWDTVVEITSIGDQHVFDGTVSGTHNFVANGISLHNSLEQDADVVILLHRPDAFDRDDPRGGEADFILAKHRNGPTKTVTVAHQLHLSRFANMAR

C[C@H](CO)N1C[C@H](C)[C@H](CN(C)C(=O)Nc2ccc(C(F)(F)F)cc2)OCCCC[C@H](C)Oc2ccc(NC(=O)NC3CCCCC3)cc2C1=O
AC50 [1]: 0.898 µM (active)
AC50 [2]: 8.74 µM (active)
AC50 [3]: > 52 µM (inactive)
AC50 [4]: > 52 µM (inactive)

COc1cc2c3nnc(-c4ccc(F)cc4)c-3cn(Cc3ccc(C)cc3)c2cc1OC
EC50 [5]: 10.4 µM (active)
EC50 (BJ [6]): 5.16 µM (inconclusive)
EC50 [7]: 1.1 µM (inconclusive)
IC50 [8]: 70 µM (inactive)
EC50 [9]: 2.2 µM (inconclusive)
EC50 [10]: 2.4 µM (active)
EC50 (BJ [11]): 4.86 µM (active)
EC50 (BJ [12]): 17.3 µM (active)

Cc1cc(C(=O)NCc2ccccc2F)c2ccccc2n1
IC50 [13]: 10.8 µM (active)
IC50 [14]: 17.9 µM (active)

CC1=C(C#N)c2nc(N)c(C#N)c(C)c2C1=Cc1ccc(-c2cccc(C(=O)O)c2)o1
IC50 (NS3): 143 µM (active)

CCCCC(=O)Nc1nc(-c2cccc(S(=O)(=O)N3CCOCC3)c2)cs1
IC50 (Fatty acid synthase): 20.2 µM (inactive)

CC(=O)Oc1ccc2oc(/C=C/N(C)C)c([N+](=O)[O-])c2c1
IC50 [15]: 56.8 µM (inactive)

O=C1C(Nc2cccc(Br)c2)=C(N2CCCCC2)C(=O)c2ccccc21
AC50 [16]: 19.7 µM (active)
AC50 [17]: 9.81 µM (active)
AC50 [18]: > 70 µM (inactive)

Cc1cc(C)nc(N2N=C(C(C)(C)C)CC2=O)n1
IC50 [19]: 12.1 µM (active)
IC50 [20]: 8.2 µM (active)
EC50 (Protein RecA): 10.9 µM (active)
AC50 [21]: 14.9 µM (active)
